Source: ChEMBL document CHEMBL3885881, “DrugMatrix”

Species: Rattus norvegicus
Test: DrugMatrix - Regimen: Daily Repeat
Type: toxicity, organism-based, Sprague-Dawley
Design: regimen Daily Repeat, gender Male, age 6-8 weeks
Conditions: in vivo, po, 100 mg/kg, route oral GAVAGE, dose level Low, vehicle .5 % CMC; for ABSOLUTE BASOPHIL / ABSOLUTE EOSINOPHIL / ABSOLUTE LYMPHOCYTE / ABSOLUTE MONOCYTE / ABSOLUTE SEGMENTED NEUTROPHIL / BASOPHIL / EOSINOPHIL / ERYTHROCYTE COUNT / HEMATOCRIT / HEMOGLOBIN / LEUKOCYTE COUNT / LYMPHOCYTE / MEAN CORPUSCULAR HEMOGLOBIN / MEAN CORPUSCULAR HEMOGLOBIN CONCENTRATION / MEAN CORPUSCULAR VOLUME / MONOCYTE / NEUTROPHIL / NUCLEATED RED BLOOD CELLS / PLATELET COUNT: tissue Blood; for ALANINE AMINOTRANSFERASE / ALBUMIN / ALKALINE PHOSPHATASE / ASPARTATE AMINOTRANSFERASE / BLOOD UREA NITROGEN / CARBON DIOXIDE / CHLORIDE / CHOLESTEROL / CREATINE PHOSPHOKINASE / CREATININE / GLUCOSE / LACTATE DEHYDROGENASE / LIPASE / PHOSPHORUS / POTASSIUM / SODIUM / TOTAL BILIRUBIN / TOTAL PROTEIN / URIC ACID: tissue Plasma

SMILES: CC=Cc1ccc(O)c(OC)c1 [ISOEUGENOL]
- ABSOLUTE BASOPHIL (72 h, time 3 day): 0 CELLS/uL
- ABSOLUTE EOSINOPHIL (72 h, time 3 day): 0 CELLS/uL
- ABSOLUTE LYMPHOCYTE (72 h, time 3 day): 15444.33 CELLS/uL
- ABSOLUTE MONOCYTE (72 h, time 3 day): 342 CELLS/uL
- ABSOLUTE SEGMENTED NEUTROPHIL (72 h, time 3 day): 1847 CELLS/uL
- BASOPHIL (72 h, time 3 day): 0%
- EOSINOPHIL (72 h, time 3 day): 0%
- ERYTHROCYTE COUNT (72 h, time 3 day): 5.62 x10E6/uL
- HEMATOCRIT (72 h, time 3 day): 36.7%
- HEMOGLOBIN (72 h, time 3 day): 13.83 G/DL
- LEUKOCYTE COUNT (72 h, time 3 day): 17.63 x10E3/uL
- LYMPHOCYTE (72 h, time 3 day): 87.33%
- MEAN CORPUSCULAR HEMOGLOBIN (72 h, time 3 day): 24.63 pg
- MEAN CORPUSCULAR HEMOGLOBIN CONCENTRATION (72 h, time 3 day): 37.77 G/DL
- MEAN CORPUSCULAR VOLUME (72 h, time 3 day): 65.23 fL
- MONOCYTE (72 h, time 3 day): 2%
- NEUTROPHIL (72 h, time 3 day): 10.67%
- NUCLEATED RED BLOOD CELLS (72 h, time 3 day): 0 /100WBC
- PLATELET COUNT (72 h, time 3 day): 1262 x10E3/uL
- ALANINE AMINOTRANSFERASE (72 h, time 3 day): 53.33 u/L
- ALBUMIN (72 h, time 3 day): 4.73 G/DL
- ALKALINE PHOSPHATASE (72 h, time 3 day): 338.67 u/L
- ASPARTATE AMINOTRANSFERASE (72 h, time 3 day): 88.33 u/L
- BLOOD UREA NITROGEN (72 h, time 3 day): 17.67 mg/dL
- CARBON DIOXIDE (72 h, time 3 day): 23.67 mmol/L
- CHLORIDE (72 h, time 3 day): 102 MEQ/L
- CHOLESTEROL (72 h, time 3 day): 66.67 mg/dL
- CREATINE PHOSPHOKINASE (72 h, time 3 day): 312.33 u/L
- CREATININE (72 h, time 3 day): 0.17 mg/dL
- GLUCOSE (72 h, time 3 day): 143 mg/dL
- LACTATE DEHYDROGENASE (72 h, time 3 day): 280.33 u/L
- LIPASE (72 h, time 3 day): 9.33 u/L
- PHOSPHORUS (72 h, time 3 day): 11.33 mg/dL
- POTASSIUM (72 h, time 3 day): 6.23 MEQ/L
- SODIUM (72 h, time 3 day): 144.93 MEQ/L
- TOTAL BILIRUBIN (72 h, time 3 day): 0.23 mg/dL
- TOTAL PROTEIN (72 h, time 3 day): 5.83 G/DL
- URIC ACID (72 h, time 3 day): 1.8 mg/dL
- ABSOLUTE BASOPHIL (120 h, time 5 day): 0 CELLS/uL
- ABSOLUTE EOSINOPHIL (120 h, time 5 day): 450 CELLS/uL
- ABSOLUTE LYMPHOCYTE (120 h, time 5 day): 12545.67 CELLS/uL
- ABSOLUTE MONOCYTE (120 h, time 5 day): 392.67 CELLS/uL
- ABSOLUTE SEGMENTED NEUTROPHIL (120 h, time 5 day): 1645 CELLS/uL
- BASOPHIL (120 h, time 5 day): 0%
- EOSINOPHIL (120 h, time 5 day): 3%
- ERYTHROCYTE COUNT (120 h, time 5 day): 5.9 x10E6/uL
- HEMATOCRIT (120 h, time 5 day): 36%
- HEMOGLOBIN (120 h, time 5 day): 13.27 G/DL
- LEUKOCYTE COUNT (120 h, time 5 day): 15.03 x10E3/uL
- LYMPHOCYTE (120 h, time 5 day): 83.33%
- MEAN CORPUSCULAR HEMOGLOBIN (120 h, time 5 day): 22.57 pg
- MEAN CORPUSCULAR HEMOGLOBIN CONCENTRATION (120 h, time 5 day): 36.83 G/DL
- MEAN CORPUSCULAR VOLUME (120 h, time 5 day): 61.17 fL
- MONOCYTE (120 h, time 5 day): 2.67%
- NEUTROPHIL (120 h, time 5 day): 11%
- NUCLEATED RED BLOOD CELLS (120 h, time 5 day): 0 /100WBC
- PLATELET COUNT (120 h, time 5 day): 1402 x10E3/uL
- ALANINE AMINOTRANSFERASE (120 h, time 5 day): 47.67 u/L
- ALBUMIN (120 h, time 5 day): 4.37 G/DL
- ALKALINE PHOSPHATASE (120 h, time 5 day): 345.67 u/L
- ASPARTATE AMINOTRANSFERASE (120 h, time 5 day): 83.33 u/L
- BLOOD UREA NITROGEN (120 h, time 5 day): 18 mg/dL
- CARBON DIOXIDE (120 h, time 5 day): 23.67 mmol/L
- CHLORIDE (120 h, time 5 day): 109.67 MEQ/L
- CHOLESTEROL (120 h, time 5 day): 58 mg/dL
- CREATINE PHOSPHOKINASE (120 h, time 5 day): 251.33 u/L
- CREATININE (120 h, time 5 day): 0.21 mg/dL
- GLUCOSE (120 h, time 5 day): 141 mg/dL
- LACTATE DEHYDROGENASE (120 h, time 5 day): 180.67 u/L
- LIPASE (120 h, time 5 day): 9 u/L
- PHOSPHORUS (120 h, time 5 day): 11.17 mg/dL
- POTASSIUM (120 h, time 5 day): 6.1 MEQ/L
- SODIUM (120 h, time 5 day): 146.53 MEQ/L
- TOTAL BILIRUBIN (120 h, time 5 day): 0.2 mg/dL
- TOTAL PROTEIN (120 h, time 5 day): 6.13 G/DL
- URIC ACID (120 h, time 5 day): 1.57 mg/dL
